IC50 data for 17 compounds are collected here from ChEMBL document CHEMBL3259703, “Synthesis and preliminary biological evaluation of 1,2,3-triazole-Jaspine B hybrids as potential cytotoxic agents” (Eur J Med Chem, 2014).

The structures appear in SMILES notation. pIC50: −log10 of the molar value. A value given as a limit tells only on which side of the number the result lay.

Holding throughout (assay type): functional, cell-based
Experiment [1] relates to MGC-803. In words: Antiproliferative activity against human MGC803 cells after 48 hrs by MTT assay. As to conditions: MGC-803, 48 h.
A short description of experiment [2]: Antiproliferative activity against human EC9706 cells after 48 hrs by MTT assay. As to conditions: EC9706, 48 h.
The subject of experiment [3] is MCF7. Kind of experiment: Antiproliferative activity against human MCF7 cells after 48 hrs by MTT assay. The note with it: MCF7, 48 h.

In the case of `CCCCCCCn1cc(COC[C@@H]2OC[C@H](N)[C@@H]2O)nn1`, the pIC50 in experiment [1], in experiment [2] and in experiment [3] was under 3.89 in each case.
Consider `CCCCCCCCn1cc(COC[C@@H]2OC[C@H](N)[C@@H]2O)nn1`, for which the values for the pIC50 in experiment [1], in experiment [2] and in experiment [3] were 4.15, 4.35 and 4.55, respectively.
Turning to `CCCCCCCCCn1cc(COC[C@@H]2OC[C@H](N)[C@@H]2O)nn1`, the pIC50 in experiment [1] was 4.86; in experiment [2], 4.70; in experiment [3] it was 4.91.
On the same counts, the results for `CCCCCCCCCCn1cc(COC[C@@H]2OC[C@H](N)[C@@H]2O)nn1` are 5.06, 4.81 and 5.02.
On to `CCCCCCCCCCCCn1cc(COC[C@@H]2OC[C@H](N)[C@@H]2O)nn1`, for which the pIC50 in experiment [1] is 4.67; in experiment [2] it was 4.80; in experiment [3] it was 5.66.
`CCCCCCCCCCCCCCn1cc(COC[C@@H]2OC[C@H](N)[C@@H]2O)nn1`: the pIC50 in experiment [1] was 5.09; in experiment [2], 5.11; in experiment [3] it was 5.73.
Take `CCCCCCCCCCCCCCCCn1cc(COC[C@@H]2OC[C@H](N)[C@@H]2O)nn1`: the pIC50 is 4.55 in experiment [1], 4.70 in experiment [2] and 5.48 in experiment [3].
In the same order, the values of `CCCCCCCCCCCCCCCCCCn1cc(COC[C@@H]2OC[C@H](N)[C@@H]2O)nn1` are 4.81, 4.75 and 5.12.
As for `CCCCCCCn1cc(COC[C@@H]2OC[C@H](N)[C@H]2O)nn1`, the pIC50 in experiment [1], in experiment [2] and in experiment [3] was under 3.89 in each case.
`CCCCCCCCn1cc(COC[C@@H]2OC[C@H](N)[C@H]2O)nn1`: the negative logarithm of the IC50 (pIC50) in experiment [1], in experiment [2] and in experiment [3] was under 3.89 throughout.
For `CCCCCCCCCn1cc(COC[C@@H]2OC[C@H](N)[C@H]2O)nn1`, the pIC50 in experiment [1], in experiment [2] and in experiment [3] was under 3.89 in each case.
In the case of `CCCCCCCCCCn1cc(COC[C@@H]2OC[C@H](N)[C@H]2O)nn1`, the pIC50 in experiment [1] was 4.24; in experiment [2] it was 4.37; in experiment [3], 4.35.
`CCCCCCCCCCCCn1cc(COC[C@@H]2OC[C@H](N)[C@H]2O)nn1`: the pIC50 in experiment [1] was 3.94; in experiment [2], 4.03; in experiment [3] it was 5.58.
For the compound `CCCCCCCCCCCCCCn1cc(COC[C@@H]2OC[C@H](N)[C@H]2O)nn1`, the pIC50 was 5.06 in experiment [1], 5.18 in experiment [2] and 5.61 in experiment [3].
In the case of `CCCCCCCCCCCCCCCCn1cc(COC[C@@H]2OC[C@H](N)[C@H]2O)nn1`, the pIC50 is 5.27 in experiment [1], 5.20 in experiment [2] and 5.65 in experiment [3].
Take `O=c1[nH]cc(F)c(=O)[nH]1` [FLUOROURACIL]: the results for the pIC50 in experiment [1], in experiment [2] and in experiment [3] were 4.95, 5.02 and 5.45, respectively.
On the same counts, the results for `CCCCCCCCCCCCCC[C@@H]1OC[C@H](N)[C@@H]1O` [PACHASTRISSAMINE] are 5.29, 5.21 and 5.32.
